In ChEMBL document CHEMBL1201862, “PubChem BioAssay data set” (2004):
Active and inactive are the calls of the source.

Key:
[1] = system: Vero; test: cells; type: functional, cell-based; settings: Chlorocebus sabaeus
[2] = viability of uninfected HEp-2 cells – cell-based, HTS, cytotoxicity control for RSV inhibitor project, dose response (AID 2410); type: functional; settings: human respiratory syncytial virus
[3] = cells
[4] = HEK-293T viability loss after treatment – luminescence, T-cell screen hits, cytotoxicity control for TCR NF-kB inhibitor project, dose response (AID 489026); type: functional, cell-based;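 note: cells exposed to compound about 14 hours before the viability readout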
[5] = target: Heat shock protein HSP 90-alpha (Homo sapiens, UniProt P07900); type: functional, organism-based
[6] = system: Vero; test: cells; type: functional; settings: Chlorocebus sabaeus
[7] = system: INS1; test: INS-1E survival protection against cytokine death – cell-based, luminescence, retest, dose response (AID 449756); type: functional; settings: Rattus norvegicus;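 note: cell death triggered by IL-1 beta plus TNF-alpha plus IFN-gamma mixture; protective hits raise ATP signal compared with cytokine alone wells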
[8] = target: T1, Sentrin-specific protease 7 (Homo sapiens, UniProt Q9BQF6); type: functional;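 note: Luminescence-based dose-response confirmation of ultra-high-throughput screening hits, measuring inhibition of SENP7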
T1 sequence (Q9BQF6 whole entry): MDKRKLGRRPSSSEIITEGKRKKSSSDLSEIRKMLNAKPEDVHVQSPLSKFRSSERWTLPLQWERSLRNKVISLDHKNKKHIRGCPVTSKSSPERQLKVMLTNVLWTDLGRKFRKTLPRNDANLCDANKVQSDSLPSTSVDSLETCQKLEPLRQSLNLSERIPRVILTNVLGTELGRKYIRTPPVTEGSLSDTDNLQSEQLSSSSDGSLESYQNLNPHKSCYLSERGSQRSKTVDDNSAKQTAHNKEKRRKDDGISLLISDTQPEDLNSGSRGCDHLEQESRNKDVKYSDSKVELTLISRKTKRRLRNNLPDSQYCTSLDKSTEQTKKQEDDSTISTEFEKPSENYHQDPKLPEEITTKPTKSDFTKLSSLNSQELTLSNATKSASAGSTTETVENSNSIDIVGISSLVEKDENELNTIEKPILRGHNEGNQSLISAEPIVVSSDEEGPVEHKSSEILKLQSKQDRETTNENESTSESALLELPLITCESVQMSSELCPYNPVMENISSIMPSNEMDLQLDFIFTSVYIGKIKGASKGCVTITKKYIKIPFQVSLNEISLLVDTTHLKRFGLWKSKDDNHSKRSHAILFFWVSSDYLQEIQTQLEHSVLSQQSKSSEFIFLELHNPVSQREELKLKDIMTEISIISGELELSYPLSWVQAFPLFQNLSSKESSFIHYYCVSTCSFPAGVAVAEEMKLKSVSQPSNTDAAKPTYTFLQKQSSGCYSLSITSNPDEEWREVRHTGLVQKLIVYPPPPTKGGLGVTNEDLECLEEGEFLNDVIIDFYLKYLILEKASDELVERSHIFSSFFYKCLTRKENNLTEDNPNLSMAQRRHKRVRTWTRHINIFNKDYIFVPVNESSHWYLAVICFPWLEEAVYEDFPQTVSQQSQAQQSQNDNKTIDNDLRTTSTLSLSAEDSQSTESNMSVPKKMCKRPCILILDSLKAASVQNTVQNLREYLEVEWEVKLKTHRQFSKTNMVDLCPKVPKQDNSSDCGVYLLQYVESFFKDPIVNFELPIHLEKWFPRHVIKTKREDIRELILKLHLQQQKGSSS

[9] = target: T2, Sentrin-specific protease 8 (Homo sapiens, UniProt Q96LD8); type: functional;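 note: luminescence read-out of SENP8 inhibition, dose-response confirmation following an ultra-high-throughput screen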
T2 sequence (Q96LD8 whole entry): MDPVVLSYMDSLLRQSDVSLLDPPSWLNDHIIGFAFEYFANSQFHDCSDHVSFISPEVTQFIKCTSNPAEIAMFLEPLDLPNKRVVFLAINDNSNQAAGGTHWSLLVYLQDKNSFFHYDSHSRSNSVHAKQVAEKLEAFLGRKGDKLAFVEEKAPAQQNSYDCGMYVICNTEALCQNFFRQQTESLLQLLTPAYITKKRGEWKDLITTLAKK

[10] = target: T3, Caspase-3 (Homo sapiens, UniProt P42574); type: functional;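 note: Dose-response selectivity test against caspase-3 for candidate inhibitors of sentrin-specific proteases (SENPs)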
T3 sequence (P42574 whole entry): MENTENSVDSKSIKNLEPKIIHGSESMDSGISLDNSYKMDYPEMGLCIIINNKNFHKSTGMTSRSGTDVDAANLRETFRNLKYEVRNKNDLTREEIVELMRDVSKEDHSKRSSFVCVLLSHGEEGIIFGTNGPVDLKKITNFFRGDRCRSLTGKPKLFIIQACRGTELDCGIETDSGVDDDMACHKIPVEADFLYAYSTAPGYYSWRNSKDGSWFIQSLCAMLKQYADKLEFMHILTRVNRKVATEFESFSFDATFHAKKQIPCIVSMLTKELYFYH

[11] = Vero E6 cell cytotoxicity, dose response, cytotoxicity control for non-replicating M. tuberculosis project, secondary assay (AID 492998); type: functional, VeroE6; settings: Vero C1008
[12] = Luminescence Cell-Based Dose Retest to Confirm Inhibitors of Cancer Stem Cells. [Related pubchem assays (depositor defined):AID2717, AID2721]; type: functional; settings: Homo sapiens
[13] = target: T4, Sentrin-specific protease 6 (Homo sapiens, UniProt Q9GZR1); type: functional;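 note: Luminescence-based dose-response confirmatory assay of SENP6 inhibition, following up an ultra-high-throughput screen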
T4 sequence (Q9GZR1 whole entry): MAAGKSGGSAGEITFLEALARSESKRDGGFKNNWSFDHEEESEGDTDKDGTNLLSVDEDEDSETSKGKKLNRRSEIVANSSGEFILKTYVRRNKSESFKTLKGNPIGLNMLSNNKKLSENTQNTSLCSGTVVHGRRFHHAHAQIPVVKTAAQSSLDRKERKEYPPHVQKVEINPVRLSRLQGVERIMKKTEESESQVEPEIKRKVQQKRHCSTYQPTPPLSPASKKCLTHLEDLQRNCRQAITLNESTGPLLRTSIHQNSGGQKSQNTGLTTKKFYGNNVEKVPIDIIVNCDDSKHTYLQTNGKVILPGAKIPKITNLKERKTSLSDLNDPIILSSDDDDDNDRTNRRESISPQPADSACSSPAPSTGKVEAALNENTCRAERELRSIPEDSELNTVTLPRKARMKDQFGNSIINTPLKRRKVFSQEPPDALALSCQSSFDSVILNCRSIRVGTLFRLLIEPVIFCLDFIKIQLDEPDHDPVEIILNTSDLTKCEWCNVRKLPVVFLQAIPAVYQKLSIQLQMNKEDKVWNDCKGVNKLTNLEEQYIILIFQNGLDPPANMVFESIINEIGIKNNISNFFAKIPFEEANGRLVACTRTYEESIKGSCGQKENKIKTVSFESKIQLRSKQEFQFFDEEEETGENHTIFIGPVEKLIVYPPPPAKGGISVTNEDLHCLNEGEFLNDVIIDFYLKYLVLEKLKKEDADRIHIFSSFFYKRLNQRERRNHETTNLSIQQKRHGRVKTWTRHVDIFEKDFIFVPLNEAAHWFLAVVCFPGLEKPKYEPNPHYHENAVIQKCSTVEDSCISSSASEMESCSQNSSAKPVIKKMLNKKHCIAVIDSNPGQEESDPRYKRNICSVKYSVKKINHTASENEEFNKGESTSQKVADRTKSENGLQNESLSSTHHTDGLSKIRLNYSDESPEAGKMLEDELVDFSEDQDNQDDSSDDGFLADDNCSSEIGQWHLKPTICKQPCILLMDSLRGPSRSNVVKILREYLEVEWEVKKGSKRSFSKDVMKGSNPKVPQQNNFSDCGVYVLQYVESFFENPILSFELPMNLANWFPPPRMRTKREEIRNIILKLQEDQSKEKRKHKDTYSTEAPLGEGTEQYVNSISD

[14] = THP-1 cell cytotoxicity, dose response, cytotoxicity control for non-replicating M. tuberculosis project (AID 489025); type: functional
[15] = cells; type: functional
[16] = system: Streptococcus; test: GAS UMAA2166 growth inhibition – luminescence, BacTiterGlo, counter-screen for streptokinase expression inhibitor project, dose response (AID 1915); type: functional, organism-based;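 note: potency for reduction of bacterial viability or growth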
[17] = system: Streptococcus sp. 'group A'; test: Streptococcus pyogenes SK(-)GAS viability under kanamycin – luminescence, BacTiterGlo, confirmation, counter-screen for streptokinase expression inhibitor project, dose response (AID 1900); type: functional, organism-based
[18] = microbe, parasite or virus in culture; type: functional; settings: Mycobacterium tuberculosis

## COc1ccccc1C1CCCN1Cc1nc(-c2ccc(C)s2)oc1C (configuration not stated)
[1]
  IC50: 10.9 µM (active)
[2]
  CC50: 20.2 µM (active)
[3]
  IC50: 33.3 µM (active)

## O=S(=O)(Nc1ccc(F)cc1Cl)c1ccc(-c2cnc(C3CC3)o2)cc1
[4]
  IC50: > 80 µM (inactive)

## Cc1cccc(NC(S)=NCC23C=CC(O2)C2C(=O)N(c4ccc(Cl)cc4)C(=O)C23)c1 (configuration not stated)
[5]
  AC50: 15 µM (active)

## O=C(CCN1C(=O)/C(=C/c2ccc(F)cc2)SC1=S)NCCc1ccc(O)cc1
[1]
  IC50: > 25 µM (active)
[6]
  CC50: 24.1 µM (active)

## O=C(Nc1ccn(Cc2ccccc2F)n1)c1ccc(COc2ccc(Br)cc2)cc1
[4]
  IC50: > 80 µM (inactive)

## O=C1C=C(Nc2ccc(F)cc2)c2ccccc2C1=O
[7]
  AC50: 3.06 µM (active)
[8]
  IC50: 9.46 µM (active)
[9]
  IC50: 4.81 µM (active)
[10]
  IC50: 13.9 µM (active)
[11]
  CC50: 9.15 µM (active)
[12]
  AC50: 3.19 µM (active)
[13]
  IC50: 2.94 µM (active)
[14]
  CC50: 19 µM (active)
[15]
  IC50: 4.25 µM (active)

## OC(Cn1cncn1)(c1ccc(F)cc1)c1ccc(Cl)cc1 (configuration not stated)
[5]
  AC50: < 0.195 µM (active)

## CC(C)c1ccc(OCC(=O)NNC(=S)NC(=O)c2ccco2)c(Br)c1
[1]
  IC50: > 25 µM (active)
[6]
  CC50: > 25 µM (active)
[16]
  EC50: 0.141 µM (active)
[17]
  EC50: < 0.06 µM (active)

## Cc1cc(/C=C/c2ccc3cc(N(C)C)ccc3[n+]2C)c(C)n1-c1ccccc1
[5]
  AC50: 5.91 µM (active)
[18]
  CC50: 2.28 µM (active)

## CCCc1c(NC(=O)Nc2ccc(Cl)cc2Cl)cnn1-c1ccccc1
[1]
  IC50: 17.9 µM (active)
[6]
  CC50: > 25 µM (active)

## CCCCCCCCCC(=O)N[C@@H]1c2cc(OC)c(OC)cc2C[C@H]1OCc1ccccc1
[1]
  IC50: > 25 µM (active)
